Source: PMC8840488, “Antidiabetic Activity and In Silico Molecular Docking of Polyphenols from Ammannia baccifera L. subsp. Aegyptiaca (Willd.) Koehne Waste: Structure Elucidation of Undescribed Acylated Flavonol Diglucoside” (Plants, 2022)

Key:
[1] = system: β-glucosidase; assay: In vitro β-glucosidase inhibition; type: biochemical; details: for β-glucosidase IC50: concentration range 75–600 µg/mL
Protocol: The assay was performed in conformity with and used the same formula for amylase.

[2] = ORAC antioxidant assay
Text: The antioxidant assay was applied to AEEE and the isolated phenolics.

[3] = Reducing power assay
Protocol: In the reducing-power assay, the more antioxidant compounds convert the oxidated form of iron (Fe^+3) in ferric chloride to ferrous (Fe^+2), which leads to an increase in colored ferrous-TPTZ complexes.
The assay was carried out on AEEE and the isolated phenolics (DeGraft-Johnson et al., 2007).

[4] = molecular target: T1, pancreatic lipase (Homo sapiens, UniProt P16233); assay: In vitro pancreatic lipase inhibition; type: biochemical; details: for IC50: concentration range 12–100 µg/mL
T1 sequence (P16233 17-465): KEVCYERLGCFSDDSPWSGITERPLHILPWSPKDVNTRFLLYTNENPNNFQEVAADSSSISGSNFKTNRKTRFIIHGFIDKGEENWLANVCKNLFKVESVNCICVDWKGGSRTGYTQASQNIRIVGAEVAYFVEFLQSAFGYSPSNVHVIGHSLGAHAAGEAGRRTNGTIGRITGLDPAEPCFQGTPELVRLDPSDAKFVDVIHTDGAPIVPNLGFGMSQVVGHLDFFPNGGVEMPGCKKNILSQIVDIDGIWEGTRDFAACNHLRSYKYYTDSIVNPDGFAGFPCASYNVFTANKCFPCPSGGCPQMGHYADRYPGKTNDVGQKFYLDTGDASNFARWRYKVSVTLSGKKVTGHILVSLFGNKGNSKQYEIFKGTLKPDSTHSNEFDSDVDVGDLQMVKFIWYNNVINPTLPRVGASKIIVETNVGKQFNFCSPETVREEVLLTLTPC
Protocol: The determination of the percentage inhibition of pancreatic lipase was calculated as prescribed by Hegazi et al., using the same formula for amylase.

[5] = DPPH antioxidant assay
Protocol: The assay was carried out for AEEE and isolated phenolics according to Brand-Williams et al..

[6] = molecular target: T2, α-amylase (Homo sapiens, UniProt P04746); assay: In vitro α-amylase inhibition; type: biochemical; details: for IC50: concentration range 75–600 µg/mL
T2 construct: purchased Sigma-Aldrich (Merck, Darmstadt, Germany)
T2 sequence (P04746 16-511): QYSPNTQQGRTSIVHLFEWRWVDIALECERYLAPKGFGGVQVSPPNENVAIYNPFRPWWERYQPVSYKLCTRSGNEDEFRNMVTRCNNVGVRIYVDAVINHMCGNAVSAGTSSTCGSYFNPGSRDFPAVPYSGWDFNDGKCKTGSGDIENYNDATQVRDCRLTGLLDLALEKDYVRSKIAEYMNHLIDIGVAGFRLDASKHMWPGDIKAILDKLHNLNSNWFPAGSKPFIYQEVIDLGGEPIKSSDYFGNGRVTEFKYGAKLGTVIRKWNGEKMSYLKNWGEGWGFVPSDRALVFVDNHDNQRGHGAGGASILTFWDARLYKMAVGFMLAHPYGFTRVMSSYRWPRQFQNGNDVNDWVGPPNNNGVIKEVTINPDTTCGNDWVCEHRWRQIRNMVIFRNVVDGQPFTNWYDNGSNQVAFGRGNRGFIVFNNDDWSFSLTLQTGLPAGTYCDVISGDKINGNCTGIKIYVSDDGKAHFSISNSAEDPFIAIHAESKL
Text: The assay was implemented in accordance with. […] The percentage of inhibition can be estimated using the following Equation: 100−[{A sample/ Acontrol ×100]

SMILES | β-glucosidase % Inhibition ([1]; at 600 µg/mL) | β-glucosidase IC50 [1] | ORAC IC50 [2] | β-glucosidase % Inhibition ([1]; at 300 µg/mL) | Ferrous reducing assay IC50 [3] | IC50 [4] | DPPH IC50 [5] | inhibition at 300 µg/mL [6] | IC50 [6] | Reducing power ([3]; compared with quercetin as standard) | inhibition at 100 µg/mL [4]
C[C@@H]1O[C@@H](OC[C@H]2O[C@@H](Oc3c(-c4ccc(O)cc4)oc4cc(O)cc(O)c4c3=O)[C@H](O)[C@@H](O)[C@@H]2O)[C@H](O)[C@H](O)[C@H]1O [Compound 2, kaempfeol 3-O-rutinoside] | – | – | > 100 ± 10.17 µg/mL | – | – | 228 µM | > 100 ± 13.67 µg/mL | 80.4 ± 3.81% | 348 µM | – | 35.8 ± 3.84%
C[C@@H]1O[C@@H](OC[C@H]2O[C@@H](Oc3c(-c4ccc(O)c(O)c4)oc4cc(O)cc(O)c4c3=O)[C@H](O)[C@@H](O)[C@@H]2O)[C@H](O)[C@H](O)[C@H]1O [Compound 3, quercetin 3-O-rutinoside] | – | 104 ± 3.80 µg/mL | 8.02 ± 0.85 µg/mL | 66 ± 3.47 % | – | 66.2 µM | 8.81 ± 1.05 µg/mL | 72.1 ± 3.49% | 366 µM | – | 82.2 ± 2.53%
CCCCCCCCCCC[C@@H](C[C@@H]1OC(=O)[C@H]1CCCCCC)OC(=O)[C@H](CC(C)C)NC=O [Orlistat, reference compound] | – | – | – | – | – | – | – | – | – | – | 57 ± 4.5%
Cc1c(C)c2c(c(C)c1O)CCC(C)(C(=O)O)O2 (stereo not drawn) [Trolox, reference compound] | – | – | 28.0 ± 14.31 µg/mL | – | – | – | – | – | – | – | –
O=C1O[C@H]([C@@H](O)CO)C(O)=C1O [Vitamin C, reference compound] | – | – | – | – | – | – | 1.83 ± 1.41 µg/mL | – | – | – | –

More lines, main results first:

β-glucosidase % Inhibition ([1]; at 600 µg/mL) | β-glucosidase IC50 [1] | ORAC IC50 [2] | β-glucosidase % Inhibition ([1]; at 300 µg/mL) | Ferrous reducing assay IC50 [3] | IC50 [4] | DPPH IC50 [5] | inhibition at 300 µg/mL [6] | IC50 [6] | SMILES | Reducing power ([3]; compared with quercetin as standard) | inhibition at 100 µg/mL [4]
95.2 ± 2.30% | 110.6 ± 3.20 µg/mL | – | – | – | – | – | – | – | C[C@H]1O[C@H](O[C@H]2[C@H](O)[C@@H](O)[C@@H](O[C@H]3[C@H](O)[C@@H](O)C(O)O[C@@H]3CO)O[C@@H]2CO)[C@H](O)[C@@H](O)[C@@H]1N[C@H]1C=C(CO)[C@@H](O)[C@H](O)[C@H]1O (stereo partly drawn) [Acarbose, reference compound] | – | –
– | 72.77 ± 2.67 µg/mL | 2.01 ± 0.23 µg/mL | 92.70 ± 1.42 % | 158.13 ± 2.82 µg/mL | 40.3 µM | 2.37 ± 0.56 µg/mL | 91.4 ± 2.45% | 198 µM | O=C(OC[C@H]1O[C@@H](Oc2c(-c3cc(O)c(O)c(O)c3)oc3cc(O[C@@H]4O[C@H](CO)[C@@H](O)[C@H](O)[C@H]4O)cc(O)c3c2=O)[C@H](O)[C@@H](O)[C@@H]1O)c1cc(O)c(O)c(O)c1 [Compound 1, myricetin 3-O-β-^4C1-(6′′-O-galloyl glucopyranoside)-7-O-β-^4C1-glucopyranoside] | comparable to that of standard quercetin | 87 ± 2.38%
– | 115.21 ± 4.90 µg/mL | 4.14 ± 1.27 µg/mL | 58.44 ± 3.61 % | – | 343 µM | 4.64 ± 0.39 µg/mL | 78.9 ± 4.13% | 276 µM | O=C(O[C@@H]1[C@@H](OC(=O)c2cc(O)c(O)c(O)c2)[C@H](O)O[C@@H]2COC(=O)c3cc(O)c(O)c(O)c3-c3c(cc(O)c(O)c3O)C(=O)O[C@@H]12)c1cc(O)c(O)c(O)c1 [Compound 4, tellimagranidine-I] | – | 19.5 ± 4.36%
– | 100.23 ± 3.80 µg/mL | 4.43 ± 0.68 µg/mL | 68.43 ± 2.30 % | – | 549 µM | 4.81 ± 0.73 µg/mL | 78 ± 1.15% | 448 µM | O=C(O[C@H]1[C@H](O)[C@@H](CO)OC(O)[C@@H]1OC(=O)c1cc(O)c(O)c(O)c1)c1cc(O)c(O)c(O)c1 (stereo partly drawn) [Compound 5, 2,3-α, β-digalloy glucose] | – | 18.7 ± 3.1%
